Results as given in patent publication US10709705B2, “Aminopyrimidines as ALK inhibitors” (THE REGENTS OF THE UNIVERSITY OF MICHIGAN, priority 2016, dated 2020).
Like-named read-outs stand apart in the source and are kept apart here.

How the values were obtained:
[1] = target: T1, wild-type human ALK protein (cytoplasmic domain, amino acid 1058-1620) (Homo sapiens, UniProt Q9UM73); test: Wild-type ALK kinase inhibition, Lance TR-FRET assay; assay type: biochemical
T1 construct: The cytoplasmic domain (amino acid 1058-1620) of wild-type human ALK protein; purchased Carna Biosciences, Inc (Japan)
Method: The cytoplasmic domain (amino acid 1058-1620) of wild-type human ALK protein expressed as N-terminal GST-fusion protein was purchased from Carna Biosciences, Inc (Japan). Mutated ALK proteins were expressed in SF9 insect cells with N-terminal tags cleaved after purification. Kinase activities of all enzymes were assessed using a Lance® TR-FRET assay kit from Perkin Elmer Life Sciences (Waltham, Mass.). 2.5 μL of compound solution and 5 μL of protein solution were added into a black low volume 384 well microtiter plate which was incubated for 30 minutes with gentle shaking at room temperature, followed by adding 2.5 μL of fluorescently labeled peptide substrate (ULight™-IRS-1 (Tyr983) Peptide) and ATP mixture solution. The kinase reaction was performed in 50 mM HEPES (pH 7.5) with 1 mM EGTA, 1 mM MgCl2, and 2 mM DTT, 0.01% Tween-20 added right before the assay. Final concentrations of ATP, substrates, and DMSO were 100 μM, 20 nM, and 0.5%, respectively. […] Final ALK concentrations were 1 nM, 1 nM, InM, 128 nM, 2 nM, and 4 nM for wild-type, F1174L, L1196M, S1206Y, G1269A, and G1202R, respectively. The reaction was allowed to perform for 90 minutes in dark with gentle shaking at room temperature after which 10 μL of 20 mM EDTA and 2 nM Eu-W1024 anti-phosphotyrosine antibody (PT66) mixture solution in the detection buffer from the manufacturer was added to terminate the reaction and detect the phosphorylation of the peptide substrate. The final mixture was incubated in the dark for 1 hour before the plate was read on a Tecan Infinite M-1000 multi-mode plate reader (Tecan, Durham N.C.) with an excitation wavelength of 320 nm. Emission intensities were measured at both 620 and 665 nm with the intensity ratio between 665 and 620 nm corresponding to the peptide substrate phosphorylation. IC50 values of inhibitors were obtained by fitting the ratio of 665/620 nm vs inhibitor concentrations in a sigmoidal dose-response curve (variable slope) with a non-linear regression.

[2] = target: T2, FER (Homo sapiens, UniProt P16591); test: KINOMEscan kinase panel, FER; assay type: binding
T2 construct: purchased LeadHunter Discovery Services (currently DiscoverX Corporation), KINOMEscan screening service
Text: (§1) Cpd. No. 5 was screened for its activity against a panel of human kinases using the KINOMEscan™ screening platform from LeadHunter Discovery Services (currently DiscoverX Corporation (Fremont, Calif. 94538, United States). See Table 7.

[3] = target: T3, ALK F1197M (Homo sapiens, UniProt Q9UM73); test: Mutant ALK kinase inhibition, F1197M; assay type: biochemical; conditions: Table 5
T3 construct: Mutated ALK proteins were expressed in SF9 insect cells with N-terminal tags cleaved after purification; fused on or other part: N-terminal tag, cleaved after purification

[4] = target: T4, IGF1R (Homo sapiens, UniProt P08069); test: KINOMEscan kinase panel, IGF1R; assay type: binding
T4 construct: purchased LeadHunter Discovery Services (currently DiscoverX Corporation), KINOMEscan screening service
Text: as §1

[5] = system: Kappas-299 cells (NPM-ALK); test: Cell growth inhibition assay (WST-8), Kappas-299; assay type: cell-based; conditions: read-out: Kappas-299 (nM) (NPM-ALK), 50% of cell growth inhibition (IC50), WST-8, versus DMSO control
Method: H3122 and Kappas-299 cells were purchased from American Type Culture Collection (Manassas, Va., USA) and were used within 2 months after initiating from original stocks. All cell lines were cultured as recommended. For cell growth inhibition assay, cells were treated with different concentrations of the tested compounds, diluted from stock to culture media containing a 0.2% DMSO as the final concentration. Cell viability was determined using the WST-8 cell proliferation assay kit (Dojindo Molecular Technologies) according to manufacturer's instructions. Three independent experiments in triplicates were performed.

[6] = target: ALK V1180L (Homo sapiens, UniProt Q9UM73, V1180L); test: Cell based assay, ALK V1180L; set-up: key: + = active; −− = inactive; conditions: Table 5
[7] = target: T5, FES (Homo sapiens, UniProt P07332); test: KINOMEscan kinase panel, FES; assay type: binding
T5 construct: purchased LeadHunter Discovery Services (currently DiscoverX Corporation), KINOMEscan screening service
Text: as §1

[8] = Pharmacokinetics in SD rats; assay type: in vivo; conditions: Table 8 (SD rats); for AUC0-t (ng · h/mL) PO / AUC0-∞ (ng · h/mL) PO / Cmax(ng/mL) PO / Tmax (h) PO / t1/2 (h) PO: PO 10 mg/kg, 10 mg/kg
Method: Routine pharmacokinetics studies were performed for Cpd. No. 5 in SD rats and beagle dogs.

[9] = target: ALK G1202R (Homo sapiens, UniProt Q9UM73, G1202R); test: Mutant ALK kinase inhibition, Lance TR-FRET, G1202R; assay type: biochemical
Method: Mutated ALK proteins were expressed in SF9 insect cells with N-terminal tags cleaved after purification. […] The kinase reaction was performed in 50 mM HEPES (pH 7.5) with 1 mM EGTA, 1 mM MgCl2, and 2 mM DTT, 0.01% Tween-20 added right before the assay. […] The final mixture was incubated in the dark for 1 hour before the plate was read on a Tecan Infinite M-1000 multi-mode plate reader (Tecan, Durham N.C.) with an excitation wavelength of 320 nm.

[10] = target: T6, INSRR (Homo sapiens, UniProt P14616); test: KINOMEscan kinase panel, INSRR; assay type: binding
T6 construct: purchased LeadHunter Discovery Services (currently DiscoverX Corporation), KINOMEscan screening service
Text: as §1

[11] = target: T7, FAK (Homo sapiens, UniProt Q05397); test: KINOMEscan kinase panel, FAK; assay type: binding
T7 construct: purchased LeadHunter Discovery Services (currently DiscoverX Corporation), KINOMEscan screening service
Text: as §1

[12] = target: T8, ROS1 (Homo sapiens, UniProt P08922); test: KINOMEscan kinase panel, ROS1; assay type: binding
T8 construct: purchased LeadHunter Discovery Services (currently DiscoverX Corporation), KINOMEscan screening service
Text: as §1

[13] = target: T9, ALK L1196M (Homo sapiens, UniProt Q9UM73, L1196M); test: Mutant ALK kinase inhibition, Lance TR-FRET, L1196M; assay type: biochemical; conditions: Table 5; ATP 100 μM
T9 construct: made in house; host or cells: SF9 insect cells
Method: (§2) The cytoplasmic domain (amino acid 1058-1620) of wild-type human ALK protein expressed as N-terminal GST-fusion protein was purchased from Carna Biosciences, Inc (Japan). Mutated ALK proteins were expressed in SF9 insect cells with N-terminal tags cleaved after purification. Kinase activities of all enzymes were assessed using a Lance® TR-FRET assay kit from Perkin Elmer Life Sciences (Waltham, Mass.). 2.5 μL of compound solution and 5 μL of protein solution were added into a black low volume 384 well microtiter plate which was incubated for 30 minutes with gentle shaking at room temperature, followed by adding 2.5 μL of fluorescently labeled peptide substrate (ULight™-IRS-1 (Tyr983) Peptide) and ATP mixture solution. The kinase reaction was performed in 50 mM HEPES (pH 7.5) with 1 mM EGTA, 1 mM MgCl2, and 2 mM DTT, 0.01% Tween-20 added right before the assay. Final concentrations of ATP, substrates, and DMSO were 100 μM, 20 nM, and 0.5%, respectively. […] The final mixture was incubated in the dark for 1 hour before the plate was read on a Tecan Infinite M-1000 multi-mode plate reader (Tecan, Durham N.C.) with an excitation wavelength of 320 nm. Emission intensities were measured at both 620 and 665 nm with the intensity ratio between 665 and 620 nm corresponding to the peptide substrate phosphorylation. […]

[14] = target: T10, ALK S1206Y (Homo sapiens, UniProt Q9UM73, S1206Y); test: Mutant ALK kinase inhibition, Lance TR-FRET, S1206Y; assay type: biochemical; conditions: Table 5; ATP 100 μM
T10 construct: made in house; host or cells: SF9 insect cells
Method: as §2

[15] = Sprague-Dawley, rat, in vivo, iv, 1 mg/kg, IV 1 mg/kg
[16] = listed as Cpd. No. 5 (solution)
[17] = listed as Cpd. No. 5 (suspension)

Cc1cc(Nc2ncc(Cl)c(Nc3ccccc3S(=O)(=O)C(C)C)n2)c(OC(C)C)cc1C1=CCN(C2CCOCC2)CC1 [Cpd. No. 5, 5-chloro-N2-(2-isopropoxy-5-methyl-4-(1-(tetrahydro-2H-pyran-4-yl)-1,2,3,6-tetrahydropyridin-4-yl)phenyl)-N4-(2-(isopropylsulfonyl)phenyl)pyrimidine-2,4-diamine]
IC50 ([1]; Table 4, target not given, Cpd. No. 5 value equals WT ALK IC50 of Table 5, read-out: Inhibitory activity): 0.85 nM
IC50 ([1]; Table 5, ATP 100 μM, read-out: IC50 (nM), WT): 0.85 nM
Kd [2]: 11 nM
IC50 [3]: 3.3 nM
Kd [4]: 9 nM
IC50 [5]: 13 nM
V1180L (c) [6]: + (c)
Kd [7]: 12 nM
Cmax [8, 15]: 234 ng/mL
Tmax [8, 15]: 4.98 min
AUC(0-t) ([8]; Sprague-Dawley, rat, in vivo, iv, 1 mg/kg, IV 1 mg/kg, read-out: AUC0-t (ng · h/mL) IV): 506 ng·h/mL
AUC(0-inf) ([8]; Sprague-Dawley, rat, in vivo, iv, 1 mg/kg, IV 1 mg/kg, read-out: AUC0-∞ (ng · h/mL) IV): 576 ng·h/mL
half-life ([8]; Sprague-Dawley, rat, in vivo, iv, 1 mg/kg, IV 1 mg/kg, read-out: t1/2 (h) IV (converted)): 3.94 h
MRT inf ([8]; Sprague-Dawley, rat, in vivo, IV 1 mg/kg): 4.54 h
clearance ([8]; Sprague-Dawley, rat, in vivo, IV 1 mg/kg, read-out: CL (iv) (converted)): 29.2 mL/min/kg
Vd ([8]; Sprague-Dawley, rat, in vivo, IV 1 mg/kg, read-out: Vss (iv)): 7.97 L/kg
F(AUC0-t) ([8]; PO 10 mg/kg vs IV 1 mg/kg, solution): 31.1%
AUC0-t (ng · h/mL) PO [8, 16]: 1759 ng·h/mL
AUC0-∞ (ng · h/mL) PO [8, 16]: 1788 ng·h/mL
Cmax(ng/mL) PO [8, 16]: 153 ng/mL
Tmax (h) PO [8, 16]: 2.67 h
t1/2 (h) PO [8, 16]: 3.93 h
AUC0-t (ng · h/mL) PO [8, 17]: 719 ng·h/mL
AUC0-∞ (ng · h/mL) PO [8, 17]: 733 ng·h/mL
Cmax(ng/mL) PO [8, 17]: 75.9 ng/mL
Tmax (h) PO [8, 17]: 3.67 h
t1/2 (h) PO [8, 17]: 4.05 h
IC50 ([9]; Table 5, ATP 100 μM, read-out: IC50 (nM), G1202R): 9.2 nM
IC50 ([9]; Table 6, comparison with known ALK inhibitors, read-out: G1202R IC50): 9.2 nM
Kd [10]: 32 nM
Kd [11]: 5.4 nM
Kd [12]: 0.73 nM
IC50 [13]: 0.73 nM
IC50 [14]: 1.3 nM
